Reference: PMC6043687, “Structural Analysis of Phosphoserine Aminotransferase (Isoform 1) From Arabidopsis thaliana– the Enzyme Involved in the Phosphorylated Pathway of Serine Biosynthesis” (Frontiers in Plant Science, 2018)

Legend:
AtPSAT1 [1] = target: T1, AtPSAT1 (Arabidopsis thaliana, UniProt Q96255); assay: X-ray crystallography: conversion of bound PLP to PMP; format: biochemical; settings: 10 mM Glu added before crystallization; pH 8.5; Glu itself not present in the structure
T1 construct: gene PSAT1; residues 72-430 (71-residue chloroplast transit peptide removed), 359 residues plus N-terminal SNA left after TEV cleavage of His6-tag; E. coli BL21 Gold, pMCSG68; homodimer (~80 kDa by SEC)
T1 sequence (Q96255 72-430): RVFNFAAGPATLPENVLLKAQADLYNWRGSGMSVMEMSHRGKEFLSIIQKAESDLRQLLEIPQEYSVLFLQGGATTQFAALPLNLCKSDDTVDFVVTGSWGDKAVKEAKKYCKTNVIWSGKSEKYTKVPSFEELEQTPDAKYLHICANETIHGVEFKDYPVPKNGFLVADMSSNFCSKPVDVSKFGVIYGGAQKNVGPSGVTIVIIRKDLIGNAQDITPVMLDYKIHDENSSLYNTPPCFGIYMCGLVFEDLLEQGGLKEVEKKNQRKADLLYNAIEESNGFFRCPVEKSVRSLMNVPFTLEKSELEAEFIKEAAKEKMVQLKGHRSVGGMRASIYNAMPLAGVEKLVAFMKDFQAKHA

AtPSAT1 [2] = target: T1, AtPSAT1; assay: X-ray crystallography, […] Å; format: binding; settings: covalent; internal aldimine (Schiff base) with K265; 1 mM PLP added; pH 8.5, 0.2 M lithium sulfate
AtPSAT1 [3] = target: T1, AtPSAT1; assay: X-ray crystallography, […] Å; format: binding; settings: PMP formed from PLP by addition of 10 mM Glu; not covalently bound to K265; pH 8.5, 0.2 M lithium sulfate
AtPSAT1 [4] = target: T1, AtPSAT1; assay: X-ray crystallography, […] Å; format: binding; settings: covalent; PLP-PSer geminal diamine intermediate also bound to K265; cocrystallized with 50 mM PSer, pH 8.5, no lithium sulfate
[5] = target: the molecule itself; assay: SEC; HiLoad Superdex 200 16/60; 25 mM HEPES pH 7.4, 100 mM KCl, 50 mM NaCl, 1 mM TCEP; protein mass calculated from the retention volume (~80 kDa)

Molecule: N[C@@H](CCC(=O)O)C(=O)O [Glu]
- first half-transamination observed in crystal (AtPSAT1 [1]): electron density maps (Figures 6A,B) revealed the cofactor with the amino group already transferred from Glu

Molecule: Cc1ncc(COP(=O)(O)O)c(C=O)c1O [PLP]
- crystal structure (AtPSAT1 [2]): The PLP prosthetic group creates a Schiff base (internal aldimine) between C4′ and Nζ of K265

Molecule: Cc1ncc(COP(=O)(O)O)c(CN)c1O [PMP]
- crystal structure (AtPSAT1 [3]): Position of PMP is almost identical as PLP, thus its interactions with the protein are preserved

Molecule: N[C@@H](COP(=O)(O)O)C(=O)O [PSer]
- crystal structure (AtPSAT1 [4]): The bound PSer creates several hydrogen bonds in the active site

B1: Phosphoserine aminotransferase isoform 1 from Arabidopsis thaliana (AtPSAT1), residues 72-430 (enzyme, UniProt Q96255 72-430, looked up)
chain: T1 sequence (Q96255 72-430)
modifications: PLP covalently bound to the catalytic K265 (internal aldimine, 6czx); PMP not covalently bound (6czy); cofactor covalently bound to both K265 and PSer (geminal diamine, 6czz)
notes: Phosphoserine aminotransferase isoform 1, chloroplastic, Arabidopsis thaliana; subunit of 430 residues including the transit peptide; construct truncated before R72 (71-residue chloroplast transit peptide removed), residues 72-430, 359 residues; After TEV cleavage the N-terminal residues SNA remain in front of R72 (vector pMCSG68); Crystallised with 1 mM PLP; with 10 mM Glu (PMP form) or 50 mM …
- stoichiometry N [5]: 2
